# Laboratory results: publication PMC5571359, “Screening the Medicines for Malaria Venture Pathogen Box across Multiple Pathogens Reclassifies Starting Points for Open-Source Drug Discovery” (Antimicrobial Agents and Chemotherapy, 2017)
# pEC50, pIC50: −log10 of the molar value. Like-named read-outs stand apart in the source and are kept apart here.
# Tests used:
# T. brucei rhodesiense = conditions: ref Pbox supporting information; read-out: T .b. rohdensie Pbox IC50; cited from earlier work
# [1] = system: L. infanium (macrophages); set-up: method as in Pbox supporting information; conditions: ref Pbox supporting information; cited from earlier work
# T. brucei brucei = conditions: ref Pbox supporting information; read-out: T.b. brucei Pbox IC50; cited from earlier work
# L. major = system: L. major; set-up: method as in Pbox supporting information; conditions: ref Pbox supporting information; cited from earlier work
# [2] = system: L. donovani axenic amastigotes; set-up: method as in PBox supporting information; conditions: ref PBox supporting information; cited from earlier work
# [3] = system: L. donovani (macrophages); set-up: method as in Pbox supporting information; conditions: ref Pbox supporting information; cited from earlier work
# infected PMM = system: infected PMM; set-up: method as in Pbox supporting information; conditions: ref Pbox supporting information, read-out: Toxicity on infected PMM Pbox IC50; cited from earlier work
# [4] = system: T. cruzi C4 β-galactosidase reporter parasite in MRC 5SV2 host cells; conditions: ref Pbox supporting information; read-out: T. cruzi Pbox IC50; cited from earlier work
# HepG2 = conditions: cited from earlier work; for CC50: read-out: HepG2 PBox CC50 µM
# [5] = system: NF54-pfs16-LUC-GFP stage IV gametocytes; experiment: Plasmodium falciparum late stage gametocyte (LSG) image-based assay; format: cell-based; conditions: Plasmodium falciparum; for IC50: NF54, read-out: Pf Stage IV GAMS Discovery Biology IC50 µM, stage IV gametocytes, Discovery Biology
# [6] = system: T. b. brucei 427 bloodstream trypanosomes; experiment: T. b. brucei resazurin viability assay; format: cell-based, Trypanosoma brucei brucei; conditions: for pIC50: Trypanosoma brucei
# HEK293 cells = experiment: HEK293 resazurin cell cytotoxicity assay
# [7] = system: Plasmodium falciparum 3D7 asexual blood stage; experiment: microbe, parasite or virus in culture; conditions: for IC50: 3D7, read-out: Pf 3D7 Discovery Biology IC50 µM, P. falciparum 3D7 asexual blood stage, Discovery Biology
# [8] = system: T. cruzi intracellular amastigotes; experiment: Intracellular anti-Trypanosoma cruzi image-based assay (amastigotes); format: cell-based
# [9] = HEK293 resazurin cell cytotoxicity assay; conditions: human
# [10] = system: Plasmodium falciparum 3D7 asexual blood stage
# [11] = system: L. donovani MHOM/IN/80/DD8 intracellular amastigotes; experiment: Leishmania donovani intracellular amastigote assay in THP-1 cells; format: cell-based; conditions: for IC50: Discovery Biology, some values carry an asterisk, read-out: L, donovani Discovery Biology IC50 µM
# P. falciparum ABS = conditions: cited from earlier work; for pEC50: ChEMBL Data, read-out: TCMDC (ref 93) EX50; for pIC50: Pf 3D7, ref Pathogen Box supporting information, read-out: Pf 3D7 Pbox IC50
# [12] = system: L. infanium (macrophages); set-up: method as in Pathogen Box supporting information; conditions: ref Pathogen Box supporting information, read-out: L. infanium (macrophages) Pbox IC50; cited from earlier work
# Kinase CDPK1 = biological target: Kinase CDPK1; set-up: method as in earlier work; conditions: ChEMBL Data; read-out: CROWTHER ref 101) Kinase CDPK1 IC50; cited from earlier work
# 3T3 host cells = experiment: T. cruzi assay, activity against 3T3 host cells; format: cell-based; conditions: reference compound set; IA = inactive at 16.4 μM
# Procedure, shortened: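 3T3 cells were seeded on collagen-coated plates, incubated 24 h at 37 °C, infected with T. cruzi at MOI 5:1, and washed free of extracellular parasites after a further 24 h. Following 48 h compound exposure, cells were fixed, stained with Hoechst 33342 and HCS CellMask Green, and imaged by high-content analysis.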
# liver stage = conditions: liver stage; ref Pathogen Box supporting information; read-out: LIVER STAGE Pbox IC50; cited from earlier work
# [13] = system: P. falciparum stage V gametocytes; conditions: stage V gametocytes; ref Pathogen Box supporting information; read-out: PF stage V GAMS PBox IC50; cited from earlier work
# [14] = ref PBox supporting information
# [15] = NF54, read-out: Antiplasmodial IC50 (GAM / LSG), PBox compounds, stage IV gametocytes, single determination
# [16] = read-out: T b.brucei Discovery Biology IC50
# [17] = Homo sapiens, HEK293, read-out: HEK % Inhibition 20uM/IC50 Discovery Biology
# [18] = 3D7, read-out: Antiplasmodial IC50 (ABS), PBox compounds, P. falciparum 3D7
# [19] = read-out: IC50 T. brucei brucei (Discovery Biology)
# [20] = HepG2 cytotoxicity, ref PBox supporting information
# [21] = Leishmania donovani, THP-1, read-out: IC50 L. donovani (Discovery Biology), PBox compounds, intracellular amastigotes
# [22] = Trypanosoma cruzi, 48 h, read-out: IC50 T. cruzi (Discovery Biology)
# [23] = Trypanosoma cruzi, intracellular amastigotes, Discovery Biology, read-out: T cruzi Discovery Biology IC50
# [24] = Leishmania donovani, THP-1, intracellular amastigotes
# [25] = HepG2 CC50, ref Pathogen Box supporting information
compound,measurement,setting,value
CC(C)(C)OC(=O)N1CCN(c2cc(-c3ccc(Oc4ccccc4)cc3)n[nH]2)CC1 [MMV676057],pIC50,T. brucei rhodesiense,5.57
same,pIC50,[1],4.99
same,pIC50,T. brucei brucei,5.41
same,pIC50,L. major,4.89
same,pIC50,[2],5.88
same,pIC50,[3],< 5.00
same,pIC50,infected PMM,4.70
same,pIC50,[4],5.03
same,HepG2 PBox CC20,HepG2; [14],4.0 µM
CN1CCN(S(=O)(=O)c2ccc(-c3ccc4c(Nc5ncc(Cl)cn5)ccnc4c3)cc2)CC1 [MMV688283],pIC50,T. brucei rhodesiense,6.02
same,pIC50,[1],5.60
same,pIC50,[5]; [15],5.39
same,pIC50,[6]; [16],5.28
same,pIC50,HEK293 cells; [17],< 4.70
same,pIC50,T. brucei brucei,5.42
same,pIC50,L. major,5.07
same,pIC50,[7]; [18],6.18
same,pIC50,[4],5.42
same,HepG2 PBox CC20,HepG2; [14],8.0 µM
"CC(C)=CCC/C(C)=C/CNCCNC1C2CC3CC(C2)CC1C3 (stereo not drawn) [MMV687273, SQ-109]",IC50,[5],1.89 µM
same,activity against T. brucei brucei in the Discovery Biology assay,[6],active
same,pIC50,[6]; [19],5.64
same,activity against T. cruzi in the Discovery Biology assay,[8],active
same,IC50,"[8]; Trypanosoma cruzi, read-out: T cruzi Discovery Biology IC50 µM",5.39 µM
same,selectivity ratio at 72 h,[9],> 5
same,activity in the Discovery Biology ABS assay,[10],active
same,IC50,[7],1.43 µM
same,pIC50,"[7]; 3D7, read-out: activity against P. falciparum (novel antiplasmodial actives of the tuberculosis set)",> 5.70
same,CC50,HepG2; [20],7.1 µM
same,activity against L. donovani in the Discovery Biology assay,[11],active
same,pIC50,[11]; [21],5.46
c1ccc(-c2nc(NC3CCCCC3)cc(C3CC3)n2)nc1 [MMV021013],pIC50,[5]; [15],6.72
same,pIC50,[6]; [19],5.45
same,pIC50,[8]; [22],5.78
same,selectivity ratio at 72 h,[9],> 5
same,inhibition at 20 µM,HEK293 cells; [17],83%
same,pIC50,[7]; [18],6.34
same,pEC50,"P. falciparum ABS; TCMDC set, P. falciparum",6.14
same,pIC50,[11]; [21],5.83
COc1ccc(Oc2ccc([C@@H](C)N(C)c3ncc4c(N)nc(N)nc4n3)cc2)cc1 [MMV690102],activity against T. brucei brucei in the Discovery Biology assay,[6],not active
same,pIC50,[12],7.52
same,activity against T. cruzi in the Discovery Biology assay,[8],demonstrated activity
same,pIC50,[8]; [23],7.05
same,activity in the HEK293 cytotoxicity assay,HEK293 cells,no activity
same,activity in the Discovery Biology ABS assay,[10],not active
same,activity against L. donovani in the Discovery Biology assay,[11],demonstrated activity
same,IC50,[11]; [24],0.46 µM
Nc1ncc(-c2cn[nH]c2)cc1-c1nc2cc(Cl)cnc2[nH]1 [MMV023370],pIC50,Kinase CDPK1,6.55
same,pEC50,P. falciparum ABS; TCMDC,6.04
same,pIC50,P. falciparum ABS,6.40
"CC(C)(C)[C@H]1CC[C@H](CC2=C(O)C(=O)c3ccccc3C2=O)CC1 [Buparvaquone, reference compound]",pIC50,"[5]; NF54, read-out: IC50 P. falciparum NF54 LSG, reference compound set, 11-point dose response, IA = inactive at 20 μM",5.28
same,pIC50,"[6]; reference compound set, IA = inactive at 20 μM, read-out: IC50 T. brucei brucei trypomastigotes",< 4.70
same,pIC50,"[8]; Trypanosoma cruzi, reference compound set, IA = inactive at 16.4 μM, read-out: IC50 T. cruzi intracellular amastigotes",5.31
same,Emax,"[8]; Trypanosoma cruzi, reference compound set, read-out: T. cruzi Emax (maximal % inhibition plateau in dose response curve)",98.5%
same,IC50 at 72 h,[9]; HEK293 cells,> 20 µM
same,pIC50,"[7]; 3D7, read-out: IC50 P. falciparum 3D7 ABS, reference compound set, 11-point dose response, IA = inactive at 20 μM",6.85
same,pIC50,3T3 host cells,< 4.79
same,pIC50,"[11]; Leishmania donovani, THP-1, read-out: IC50 L. donovani n = 1, reference compound set, first test, IA = inactive at 20 μM",5.73
same,inhibition at 20 µM,"[11]; Leishmania donovani, THP-1, reference compound set, second test, 20 μM, read-out: percent inhibition at the top screening dose, L. donovani n = 2",60%
Cc1ncc(-c2ccnc(Nc3ccc(S(C)(=O)=O)cc3)n2)n1C(C)C [MMV676604],pIC50,T. brucei rhodesiense,> 6.89
same,pIC50,[1],5.94
same,pIC50,[6]; [16],6.85
same,pIC50,"[8]; Trypanosoma cruzi, intracellular amastigotes, read-out: T cruzi Discovery Biology IC50",5.93
same,pIC50,"HEK293 cells; Homo sapiens, HEK293, read-out: HEK % Discovery Biology IC50",5.57
same,pIC50,T. brucei brucei,6.59
same,pIC50,L. major,5.50
same,pIC50,"[7]; 3D7, read-out: Pf 3D7 Discovery Biology IC50, P. falciparum 3D7 asexual blood stage",5.49
same,pIC50,[4],5.97
same,HepG2 PBox CC20,HepG2; [14],0.179 µM
same,pIC50,"[11]; Leishmania donovani, THP-1, intracellular amastigotes, some values marked *, read-out: L, donovani Discovery Biology IC50",5.32
Nc1nc2ccc(-c3cncc(Oc4ccc(F)cc4)c3)cc2[nH]1 [MMV687248],selectivity index (SI) T. brucei brucei versus HEK293,[6]; HEK293,> 20
same,selectivity index (SI) T. brucei brucei versus HEPG2,[6]; HEPG2 (PBox data),> 20
same,pIC50,[6]; [19],5.98
same,pIC50,[8]; [22],5.40
same,selectivity ratio at 72 h,[9],> 5
same,IC50,[7],1.52 µM
same,CC50,HepG2; [20],31.5 µM
Nc1ccc2ncnc(Nc3ccc(OCc4cccc(F)c4)c(Cl)c3)c2c1 [MMV688273],pIC50,T. brucei rhodesiense,4.88
same,pIC50,[1],< 4.49
same,pIC50,T. brucei brucei,< 4.49
same,pIC50,L. major,4.98
same,pIC50,[4],5.39
same,HepG2 PBox CC20,HepG2; [14],9.7 µM
CCOC(=O)c1c(NC(=O)c2c(F)c(F)c(F)c(F)c2F)sc(C(N)=O)c1C [MMV153413],pIC50,[5]; [15],5.97
same,pIC50,[6]; [19],5.52
same,selectivity ratio at 72 h,[9],> 5
same,activity in the Discovery Biology ABS assay,[10],not ABS activity
same,CC50,HepG2; [20],4.2 µM
CC(c1cc(Cl)cc(Cl)c1)N(C)c1ncc2c(N)nc(N)nc2n1 (stereo not drawn) [MMV689437],activity against T. brucei brucei in the Discovery Biology assay,[6],not active
same,pIC50,[12],6.27
same,activity against T. cruzi in the Discovery Biology assay,[8],demonstrated activity
same,pIC50,[8]; [23],6.72
same,activity in the HEK293 cytotoxicity assay,HEK293 cells,no activity
same,activity in the Discovery Biology ABS assay,[10],not active
same,activity against L. donovani in the Discovery Biology assay,[11],demonstrated activity
same,IC50,[11]; [24],5.73 µM
C[C@H](c1ccc2c(c1)CCCC2)N(C)c1ncc2c(N)nc(N)nc2n1 [MMV690103],activity against T. brucei brucei in the Discovery Biology assay,[6],not active
same,pIC50,[12],6.33
same,activity against T. cruzi in the Discovery Biology assay,[8],demonstrated activity
same,pIC50,[8]; [23],7.00
same,activity in the HEK293 cytotoxicity assay,HEK293 cells,no activity
same,activity in the Discovery Biology ABS assay,[10],not active
same,activity against L. donovani in the Discovery Biology assay,[11],demonstrated activity
same,IC50,[11]; [24],5.2 µM
CC(C)(CN)c1nc(-c2ccc(Cl)c(O)c2)c(-c2ccnc(N)n2)[nH]1 [MMV030734],pIC50,Kinase CDPK1,8.15
same,pIC50,liver stage,6.49
same,CC50,HepG2; [25],> 10 µM
same,pEC50,P. falciparum ABS; TCMDC,6.01
same,pIC50,P. falciparum ABS,6.39
Cc1nc(-c2ccccn2)nc(N2CCC(Cc3ccccc3)C2)c1Cl (stereo not drawn) [MMV659004],pIC50,T. brucei rhodesiense,5.25
same,pIC50,[1],5.39
same,pIC50,[5]; [15],6.17
same,pIC50,HEK293 cells; [17],< 4.70
same,pIC50,T. brucei brucei,5.18
same,pIC50,L. major,5.05
same,pIC50,[2],7.52
same,pIC50,[3],5.38
same,pIC50,infected PMM,4.78
same,pIC50,[7]; [18],5.73
same,pIC50,[4],6.01
same,HepG2 PBox CC20,HepG2; [14],10.2 µM
CN(C(=O)c1cc2c(-c3cncnc3)cccc2[nH]1)c1ccccc1 [MMV024443],IC50,[5],2.71 µM
same,pIC50,Kinase CDPK1,6.57
same,pIC50,liver stage,5.99
same,IC50,[7],1.69 µM
same,pIC50,[13],6.24
same,CC50,HepG2; [25],> 10 µM
same,pEC50,P. falciparum ABS; TCMDC,6.20
same,pIC50,P. falciparum ABS,6.14
